From patent publication US8518466B2 (Shenzhen Hazardous Waste Treatment Station Ltd., priority 2008, dated 2013) come the findings set out here.

The structures appear in SMILES notation.

The data set concerns weaned piglet. Particulars: piglets.

Protocol: According to the weight, sex, litter, the 60 weaned piglets were randomly divided into five groups. Group 1 is the control group using corn-soybean meal-dray whey powder diet with adding 150 mg/kg of basic copper chloride but without adding selenium. Group 2 and 3 are testing group using corn-soybean meal-dray whey powder diet with adding 0.3 mg/kg and 0.5 mg/kg of sodium selenite respectively, and adding 150 mg/kg of basic copper chloride. […] The testing period is 35 days, including 7 days of pre-test period and 28 days of formal test period.

As to `O=[Se](O)O` [sodium selenite], where the note is “0.3 and 0.5 mg/kg in diet”, the “selenium level of kidney compared with control group” value is “significantly higher” and the “selenium level of liver compared with control group” value is reported as “significantly higher”. The “copper content in liver among groups” value (all groups) is “almost the same”.
